According to publication PMC3155243 (Molecular cancer therapeutics, 2011):

Columns and labels:
[1] = human, in vivo
proteasome = settings: bortezomib dose 0.7 mg/m^2; cited from earlier work
advanced solid tumours = settings: bortezomib days 1, 4, 8 and 11 with paclitaxel days 1 and 8; cited from earlier work
[2] = with bortezomib and paclitaxel; cited from earlier work
[3] = Paclitaxel plasma pharmacokinetics
[4] = test system: BMK cancer cell lines and allograft tumors with RAS/RAF/MAPK pathway activation; settings: baby mouse kidney (BMK) epithelial cell model; cited from earlier work
clinical = settings: human, plasma, intravenous
[5] = Dose Level 1: paclitaxel 40 mg/m^2 + bortezomib 0.7 mg/m^2
[6] = Dose Level 2: paclitaxel 45 mg/m^2 + bortezomib 0.75 mg/m^2
[7] = Dose Level 4: paclitaxel 60 mg/m^2 + bortezomib 1.0 mg/m^2

In the case of `CC(C)C[C@H](NC(=O)[C@H](Cc1ccccc1)NC(=O)c1cnccn1)B(O)O` [bortezomib], the MTD of bortezomib [1] is given as 1.0 mg/m^2, the “effect on proteasome function” value (proteasome) is given as “effectively inhibit proteasome function” and the “recommended phase II dose of bortezomib” value (advanced solid tumours) is given as 1.3 mg/m^2.

For `N.N.O=C([O-])C1(C(=O)[O-])CCC1.[Pt+2]` [carboplatin], the “recommended phase II dose of carboplatin” value [2] is given as 6 AUC.

In the case of `CC(=O)O[C@H]1C(=O)[C@@]2(C)[C@H]([C@H](OC(=O)c3ccccc3)[C@]3(O)C[C@H](OC(=O)[C@H](O)[C@@H](NC(=O)c4ccccc4)c4ccccc4)C(C)=C1C3(C)C)[C@]1(OC(C)=O)CO[C@@H]1C[C@@H]2O` [paclitaxel], the “AUC (last)” value [3, 5] is reported as 1140 ± 450 ng·h/mL, the T1/2 [3, 5] is reported as 1.75 ± 1.45 h and the “AUC (last)” value [3, 6] is reported as 1430 ± 900 ng·h/mL. The T1/2 [3, 6] was 0.69 ± 0.20 h, the “AUC (last)” value ([3]; Dose Level 3: paclitaxel 51 mg/m^2 + bortezomib 0.86 mg/m^2) was 1700 ± 370 ng·h/mL and the “AUC (last)” value [3, 7] was 2290 ± 740 ng·h/mL. For the same compound, the T1/2 [3, 7] was 1.83 ± 0.86 h, the clearance [3, 7] was 27.2 L/h and the “effect on BIM” value [4] was “induced selective BIM accumulation”. For the same compound, the Tmax (clinical) was 1 h and the clearance (clinical) was 283 to 800 mL/min.
